Bounds are passed on as bounds.

This assay addresses KRasG12C (M1-K169, biotinylated on the N-terminus) (Homo sapiens (Human), UniProt P01116, G12C). Kind of assay: Covalent competition assay: scintillation proximity assay (SPA) quantifying covalent modification of KRASG12C. In kind it is binding. The note with it: competition with radiolabeled covalent probe (Compound B/Compound A), 2 hours incubation, 10 nM KRasG12C. Summed up: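 Scintillation proximity readout after streptavidin bead capture (30 min) of biotinylated KRasG12C(M1-K169):GDP, 10 nM final, which was covalently labelled over 2 h by 25 nM radio-probe plus 475 nM cold probe unless blocked by compound.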
On the technique in general: Scintillation proximity formats need no separation of bound from free tracer.
By IC50 is commonly meant the concentration that inhibits the measured activity by half. Consider `C=CC(=O)N1CC2(CC(n3nc(N4CCN(C(=O)N(C)C)CC4(C)C)c(-c4c(Cl)c(C)cc5[nH]ncc45)c3C)C2)C1` (single isomer, unassigned) [Example 129b, 4-(1-(2-acryloyl-2-azaspiro[3.3]heptan-6-yl)-4-(5-chloro-6-methyl-1H-indazol-4-yl)-5-methyl-1H-pyrazol-3-yl)-N,N,3,3-tetramethylpiperazine-1-carboxamide], for which the IC50 came out at 1200 nM. As for `C=CC(=O)N1CC2(CC(n3nc(N4CCC(C(=O)N(C)C)CC4(C)C)c(-c4c(Cl)c(C)cc5[nH]ncc45)c3C)C2)C1` (centres unmarked) [Example 99b, 1-(1-(2-acryloyl-2-azaspiro[3.3]heptan-6-yl)-4-(5-chloro-6-methyl-1H-indazol-4-yl)-5-methyl-1H-pyrazol-3-yl)-N,N,2,2-tetramethylpiperidine-4-carboxamide], the IC50 was above 5000 nM. Then `C=C(F)C(=O)N1CC2(CC(n3nc(N4CCN(C[C@@H]5COCCO5)C[C@]4(C)CC)c(-c4c(Cl)c(C)cc5[nH]ncc45)c3C)C2)C1` (single isomer, unassigned) [Example 174a], with above 5000 nM; and `C=CC(=O)N1CC2(CC(n3nc(N4CCC(CN5CCOCC5)CC4(C)COC)c(-c4c(Cl)c(Cl)cc5[nH]ncc45)c3C)C2)C1` (single isomer, unassigned) [Example 221a, 1-(6-(4-(5,6-dichloro-1H-indazol-4-yl)-3-(2-(methoxymethyl)-2-methyl-4-(morpholinomethyl)piperidin-1-yl)-5-methyl-1H-pyrazol-1-yl)-2-azaspiro[3.3]heptan-2-yl)prop-2-en-1-one], with 5 nM.

Take `C=CC(=O)N1CC2(CC(n3nc(N4CCN(CCO)CC4(C)C)c(-c4c(Cl)c(C)cc5[nH]ncc45)c3C)C2)C1` (single isomer, unassigned) [Example 163b, 1-(6-(4-(5-chloro-6-methyl-1H-indazol-4-yl)-3-(4-(2-hydroxyethyl)-2,2-dimethylpiperazin-1-yl)-5-methyl-1H-pyrazol-1-yl)-2-azaspiro[3.3]heptan-2-yl)prop-2-en-1-one]: the concentration for half-maximal inhibition (IC50) worked out at 114 nM. To `C=CC(=O)N1CC2(CC(n3nc(N4CCC(N5C6CCC5COC6)CC4(C)C)c(-c4c(Cl)c(C)cc5[nH]ncc45)c3C)C2)C1` (single isomer, unassigned) [Example 75b] belongs 228 nM; to `C=CC(=O)N1CC2(CC(n3nc(N4CC[C@@H](CN5C[C@@H]6C[C@H]5CS6(=O)=O)CC4(C)C)c(-c4c(Cl)c(Cl)cc5[nH]ncc45)c3C)C2)C1` (single isomer, unassigned) [Example 249b], 13 nM. On to `C=CC(=O)N1CC2(CC(n3nc(N4CC=C(CN5CCOCC5)CC4(C)C)c(-c4c(Cl)c(Cl)cc5[nH]ncc45)c3C)C2)C1` (single isomer, unassigned) [Example 220b, 1-(6-(4-(5,6-dichloro-1H-indazol-4-yl)-3-(2,2-dimethyl-4-(morpholinomethyl)-3,6-dihydropyridin-1(2H)-yl)-5-methyl-1H-pyrazol-1-yl)-2-azaspiro[3.3]heptan-2-yl)prop-2-en-1-one], for which the IC50 was determined as 36 nM. Take `C=CC(=O)N1CC2(CC(n3nc(N4CC[C@@H](CN5CCCN(C(C)=O)CC5)CC4(C)C)c(-c4c(Cl)c(Cl)cc5[nH]ncc45)c3C)C2)C1` (single isomer, unassigned) [Example 315a]: the IC50 was 2000 nM. Then `C=CC(=O)N1CC2(CCC(n3nc(N4CCN(C(C)=O)CC4)c(-c4c(Cl)ccc5[nH]ncc45)c3C)C2)C1` (single isomer, unassigned) [Example 53b, 1-(6-(3-(4-acetylpiperazin-1-yl)-4-(5-chloro-1H-indazol-4-yl)-5-methyl-1H-pyrazol-1-yl)-2-azaspiro[3.4]octan-2-yl)prop-2-en-1-one], with above 50000 nM; and `C=CC(=O)N1CC2(CC(n3nc(N4CCN(C[C@@H]5COCCO5)C[C@]4(C)CC)c(-c4c(Cl)c(Cl)cc5[nH]ncc45)c3C)C2)C1` (single isomer, unassigned) [Example 89b], with below 5 nM. Then `C=CC(=O)N1CC2(CC(n3nc(N4CC[C@@H](CN5CC6OCCN(C)C6C5)CC4(C)C)c(-c4c(Cl)c(Cl)cc5[nH]ncc45)c3C)C2)C1` (single isomer, unassigned) [Example 260b, 1-(6-(4-(5,6-dichloro-1H-indazol-4-yl)-3-((R)-2,2-dimethyl-4-(((4aR*,7aS*)-4-methylhexahydropyrrolo[3,4-b][1,4]oxazin-6(2H)-yl)methyl)piperidin-1-yl)-5-methyl-1H-pyrazol-1-yl)-2-azaspiro[3.3]heptan-2-yl)prop-2-en-1-one], with 9 nM; and `C=CC(=O)N1CC2(CC(n3nc(N4CCN(C5COC5)CC45CCC5)c(-c4c(Cl)c(C)cc5[nH]ncc45)c3C)C2)C1` (single isomer, unassigned) [Example 54b, 1-(6-(4-(5-Chloro-6-methyl-1H-indazol-4-yl)-5-methyl-3-(8-(oxetan-3-yl)-5,8-diazaspiro[3.5]nonan-5-yl)-1H-pyrazol-1-yl)-2-azaspiro[3.3]heptan-2-yl)prop-2-en-1-one], with 15 nM; and `C=CC(=O)N1CC2(CC(n3nc(N4CCn5ccnc5C4)c(-c4c(Cl)c(C)cc5[nH]ncc45)c3C)C2)C1` (single isomer, unassigned) [Example 19a, 1-(6-(4-(5-chloro-6-methyl-1H-indazol-4-yl)-3-(5,6-dihydroimidazo[1,2-a]pyrazin-7(8H)-yl)-5-methyl-1H-pyrazol-1-yl)-2-azaspiro[3.3]heptan-2-yl)prop-2-en-1-one], with 894 nM.

For the compound `C=CC(=O)N1CC2(CC(n3nc(N4CCN(C5CCOCC5)C[C@]4(C)COC)c(-c4c(Cl)c(C)cc5[nH]nc(N)c45)c3C)C2)C1` (single isomer, unassigned) [Example 90b], the IC50 is 558 nM. `C=CC(=O)N1CC2(CC(n3nc(N4CC[C@@H](CN5CCN(C(C)=O)CC5)CC4(C)C)c(-c4c(Cl)c(Cl)cc5[nH]ncc45)c3C)C2)C1` (single isomer, unassigned) [Example 319a]: the IC50 is 2700 nM.

Consider `C=CC(=O)N1CC2(CC(n3nc(N4CCc5ncncc5C4)c(-c4c(Cl)c(C)cc5[nH]ncc45)c3C)C2)C1` (single isomer, unassigned) [Example 15b, 1-(6-(4-(5-chloro-6-methyl-1H-indazol-4-yl)-3-(7,8-dihydropyrido[4,3-d]pyrimidin-6(5H)-yl)-5-methyl-1H-pyrazol-1-yl)-2-azaspiro[3.3]heptan-2-yl)prop-2-en-1-one], for which the IC50 came out at 305 nM.

Regarding `C=CC(=O)N1CC2(CC(n3nc(N4CCN(C(COC)COC)C[C@]4(C)CC)c(-c4c(Cl)c(C)cc5[nH]ncc45)c3C)C2)C1` (single isomer, unassigned) [Example 187b], the concentration for half-maximal inhibition (IC50) is 5 nM. To `C=CC(=O)N1CC2(CC(n3nc(N4CCC(N(C)C5COC5)CC45CCC5)c(-c4c(Cl)c(C)cc5[nH]nc(N)c45)c3C)C2)C1` (single isomer, unassigned) [Example 115a, 1-(6-(4-(3-amino-5-chloro-6-methyl-1H-indazol-4-yl)-5-methyl-3-(8-(methyl(oxetan-3-yl)amino)-5-azaspiro[3.5]nonan-5-yl)-1H-pyrazol-1-yl)-2-azaspiro[3.3]heptan-2-yl)prop-2-en-1-one] belongs 7 nM; to `C=CC(=O)N1CC2(CC(n3nc(N4CCC(N5CC(OC)C5)CC4(C)C)c(-c4c(Cl)c(Cl)cc5[nH]ncc45)c3C)C2)C1` (single isomer, unassigned) [Example 209a, 1-(6-(4-(5,6-dichloro-1H-indazol-4-yl)-3-(4-(3-methoxyazetidin-1-yl)-2,2-dimethylpiperidin-1-yl)-5-methyl-1H-pyrazol-1-yl)-2-azaspiro[3.3]heptan-2-yl)prop-2-en-1-one], 1100 nM; to `C=CC(=O)N1CC2(CC(n3nc(N4CC[C@@H](CN5CCOC6(COC6)C5)CC4(C)C)c(-c4c(Cl)c(C)cc5[nH]ncc45)c3C)C2)C1` (single isomer, unassigned) [Example 299b], 23 nM.

Take `C=CC(=O)N1CC2(CC(n3nc(N4CC[C@@H](OCCN5CCOCC5)CC4(C)C)c(-c4c(Cl)c(Cl)cc5[nH]ncc45)c3C)C2)C1` (single isomer, unassigned) [Example 110b]: the IC50 is 10 nM. Turning to `C=CC(=O)N1CC2(CC(n3nc(N4CCC(N(C)C(=O)COC)CC4(C)C)c(-c4c(Cl)c(C)cc5[nH]ncc45)c3C)C2)C1` (single isomer, unassigned) [Example 96a, N-(1-(1-(2-acryloyl-2-azaspiro[3.3]heptan-6-yl)-4-(5-chloro-6-methyl-1H-indazol-4-yl)-5-methyl-1H-pyrazol-3-yl)-2,2-dimethylpiperidin-4-yl)-2-methoxy-N-methylacetamide], the IC50 was above 5000 nM.

In the case of `C=CC(=O)N1CC2(CC(n3nc(N4CC[C@@H](CN5CC6OCCN(C)C6C5)CC4(C)C)c(-c4c(Cl)c(Cl)cc5[nH]ncc45)c3C)C2)C1` (single isomer, unassigned) [Example 260a, 1-(6-(4-(5,6-dichloro-1H-indazol-4-yl)-3-((R)-2,2-dimethyl-4-(((4aR*,7aS*)-4-methylhexahydropyrrolo[3,4-b][1,4]oxazin-6(2H)-yl)methyl)piperidin-1-yl)-5-methyl-1H-pyrazol-1-yl)-2-azaspiro[3.3]heptan-2-yl)prop-2-en-1-one], the IC50 is above 5000 nM. Turning to `C=CC(=O)N1CC2(CC(n3nc(N4[C@H](C)CN(C(C)=O)C[C@@H]4C)c(-c4c(Cl)c(C)cc5[nH]ncc45)c3C)C2)C1` (single isomer, unassigned) [Example 13a], the IC50 is above 50000 nM. Turning to `C=CC(=O)N1CC2(CC(n3nc(N4CC[C@@H](CN5CCO[C@@H](C(N)=O)C5)CC4(C)C)c(-c4c(Cl)c(Cl)cc5[nH]ncc45)c3C)C2)C1` (single isomer, unassigned) [Example 271b], the IC50 was determined as 14 nM.

Values taken from patent US20240317721A1, “PYRAZOLYL DERIVATIVES AS INHIBITORS OF THE KRAS MUTANT PROTEIN” (NOVARTIS AG, priority 2021, published 2024).
